Patent US20200317639A1, “POLYMORPHS OF N-[(2,6-DIFLUORO-3-METHOXYPHENYL)METHYL]-3-(METHOXYMETHYL)-1-({4-[(2-OXOPYRIDIN-1YL)METHYL]PHENYL}METHYL)PYRAZOLE-4-CARBOXAMIDE” (KALVISTA PHARMACEUTICALS LIMITED, priority 2016, published 2020)
Each block holds one compound with its values, some of them ahead of it.

How the values were obtained:
[1] = Pharmacokinetic study, single oral dose in rats; format: in vivo; conditions: male, Sprague-Dawley; rat, po 11.3 mg/kg, vehicle 10% DMSO/10% cremophor/80% SWFI, plasma
Method: A pharmacokinetic study of N-[(2,6-difluoro-3-methoxyphenyl)methyl]-3-(methoxymethyl)-1-({4-[(2-oxopyridin-1-yl)methyl]phenyl}methyl)pyrazole-4-carboxamide was performed to assess the pharmacokinetics following a single oral dose in male Sprague-Dawley rats. Two rats were given a single po dose of 5 mL/kg of a nominal 2 mg/mL (10 mg/kg) composition of test compound in vehicle. Following dosing, blood samples were collected over a period of 24 hours. Sample times were 5, 15 and 30 minutes then 1, 2, 4, 6, 8 and 12 hours. Following collection, blood samples were centrifuged and the plasma fraction analysed for concentration of test compound by LCMS.

Human KLK1 = biological target: T1, Human KLK1 (Homo sapiens, UniProt P06870); test: Determination of the IC50 for KLK1; format: biochemical; conditions: 25° C., substrate H-DVaI-Leu-Arg-AFC
T1 construct: purchased Callbiochem
Method: Determination of the IC50 for KLK1
(§1) KLK1 inhibitory activity in vitro was determined using standard published methods (see e.g. Johansen et al., Int. J. Tiss. Reac. 1986, 8, 185; Shori et al., Biochem. Pharmacol., 1992, 43, 1209; Stürzebecher et al., Biol. Chem. Hoppe-Seyler, 1992, 373, 1025). Human KLK1 (Callbiochem) was incubated at 25° C. with the fluorogenic substrate H-DVaI-Leu-Arg-AFC and various concentrations of the test compound. Residual enzyme activity (initial rate of reaction) was determined by measuring the change in […] at 410 nm and the IC50 value for the test compound was determined.

Human FXIa = biological target: T2, Human FXIa (Homo sapiens, UniProt P03951); test: Determination of the % inhibition for FXIa; format: biochemical; conditions: 40 μM test compound, 25° C.
T2 construct: purchased Enzyme Research Laboratories
Method: Determination of the % Inhibition for FXIa
as §1, with “FXIa” for “KLK1”, “FXIa (Enzyme Research Laboratories)” for “KLK1 (Callbiochem)”, “Z-Gly-Pro-Arg-AFC” for “H-DVaI-Leu-Arg-AFC”, “40 μM” for “various concentrations”, “nm.” for “nm and the IC50 value for the test compound was determined.”

Human plasma kallikrein = biological target: T3, Human plasma kallikrein (Homo sapiens, UniProt P03952); test: Determination of the IC50 for plasma kallikrein; format: biochemical; conditions: 25° C., substrate H-DPro-Phe-Arg-AFC; read-out: IC50 (human PKaI)
T3 construct: purchased Protogen
Method: Determination of the IC50 for Plasma Kallikrein
as §1, with “Plasma kallikrein” for “KLK1”, “plasma kallikrein (Protogen)” for “KLK1 (Callbiochem)”, “H-DPro-Phe-Arg-AFC” for “H-DVaI-Leu-Arg-AFC”

[2] = tested on: LPS-induced disseminated intravascular coagulation; conditions: cited from earlier work
[3] = in vivo; cited from earlier work
blood = conditions: contacting blood with the substance; cited from earlier work
[4] = tested on: intrinsic pathway of coagulation; conditions: in vitro; cited from earlier work

T3 sequence (P03952 391-638 limits assumed): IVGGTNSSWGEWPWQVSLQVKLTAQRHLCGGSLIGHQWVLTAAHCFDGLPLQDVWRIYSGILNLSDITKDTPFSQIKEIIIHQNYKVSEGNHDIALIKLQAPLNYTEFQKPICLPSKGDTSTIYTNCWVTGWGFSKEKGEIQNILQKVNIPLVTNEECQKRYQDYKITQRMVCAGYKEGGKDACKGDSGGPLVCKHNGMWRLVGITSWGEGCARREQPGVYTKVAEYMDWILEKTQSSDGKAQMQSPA
T3 sequence (P03952 20-390 partner limits assumed): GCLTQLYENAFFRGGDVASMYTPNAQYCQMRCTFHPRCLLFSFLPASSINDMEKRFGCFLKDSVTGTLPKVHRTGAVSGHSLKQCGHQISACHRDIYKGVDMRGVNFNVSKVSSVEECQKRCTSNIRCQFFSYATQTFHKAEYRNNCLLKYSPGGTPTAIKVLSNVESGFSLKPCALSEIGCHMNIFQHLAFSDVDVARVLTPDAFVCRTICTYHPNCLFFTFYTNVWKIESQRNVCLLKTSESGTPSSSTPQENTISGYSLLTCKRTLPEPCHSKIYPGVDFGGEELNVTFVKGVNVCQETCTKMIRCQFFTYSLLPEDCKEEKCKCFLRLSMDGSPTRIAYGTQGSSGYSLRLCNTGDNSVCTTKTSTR
T2 sequence (P03951 388-625 limits assumed): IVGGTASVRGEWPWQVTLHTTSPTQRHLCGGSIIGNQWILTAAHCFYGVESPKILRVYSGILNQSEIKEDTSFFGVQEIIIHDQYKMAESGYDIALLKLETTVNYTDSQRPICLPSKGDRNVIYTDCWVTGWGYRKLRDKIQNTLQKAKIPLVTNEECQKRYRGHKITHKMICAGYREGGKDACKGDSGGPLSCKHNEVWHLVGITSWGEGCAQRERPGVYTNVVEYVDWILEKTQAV
T2 sequence (P03951 19-387 partner limits assumed): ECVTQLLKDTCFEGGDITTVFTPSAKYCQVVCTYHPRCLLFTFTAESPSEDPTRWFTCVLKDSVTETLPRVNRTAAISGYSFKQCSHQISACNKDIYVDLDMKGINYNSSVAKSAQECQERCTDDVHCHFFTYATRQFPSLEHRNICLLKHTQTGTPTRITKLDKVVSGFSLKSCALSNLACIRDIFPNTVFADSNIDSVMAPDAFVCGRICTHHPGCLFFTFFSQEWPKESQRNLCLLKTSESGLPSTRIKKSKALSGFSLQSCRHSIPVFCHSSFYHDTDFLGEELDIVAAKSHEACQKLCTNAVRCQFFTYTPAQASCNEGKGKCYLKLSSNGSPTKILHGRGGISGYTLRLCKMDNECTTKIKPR
T1 sequence (P06870 25-262): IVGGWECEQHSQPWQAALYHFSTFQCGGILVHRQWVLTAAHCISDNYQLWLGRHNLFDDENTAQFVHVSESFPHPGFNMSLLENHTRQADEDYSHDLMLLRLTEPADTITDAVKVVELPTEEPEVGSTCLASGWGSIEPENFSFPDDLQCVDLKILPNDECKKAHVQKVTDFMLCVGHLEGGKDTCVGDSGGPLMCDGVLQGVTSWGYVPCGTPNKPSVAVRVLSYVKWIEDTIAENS

Cmax [1]: 2890 ng/mL
Tmax [1]: 1 h
IC50 (Human KLK1): > 10000 nM
inhibition at 40 µM (Human FXIa): 4%
IC50 (Human plasma kallikrein): 4.5 nM
Compound: COCc1nn(Cc2ccc(Cn3ccccc3=O)cc2)cc1C(=O)NCc1c(F)ccc(OC)c1F [N-[(2,6-difluoro-3-methoxyphenyl)methyl]-3-(methoxymethyl)-1-({4-[(2-oxopyridin-1-yl)methyl]phenyl}methyl)pyrazole-4-carboxamide]

Compound: Cl.NCC1CCC(C(=O)N[C@@H](Cc2ccccc2)C(=O)Nc2ccc(CC(=O)O)cc2)CC1 (stereo partly drawn) [PKSI-527]
Decrease in platelet count and fibrinogen level and increase in FDP level [2]: significantly suppressed

Compound: Ecallantide
Anaphylactic reactions [3]: risks of anaphylactic reactions
Activated clotting time (ACT) (blood): increase in activated clotting time
Contact activated induced coagulation [4]: delay contact activated induced coagulation
